The text below walks through data of patent publication US20240317744A1, “Bicyclic Ureas As Kinase Inhibitors” (Incyte Corporation, priority 2023, published 2024).

In assay [1] the target is T1, pseudo-kinase domain (JH2, amino-acids 536-812) of human V617F mutant JAK2 (Homo sapiens, UniProt O60674, F794H/V617F/W659A/W777A).
T1 construct: pseudo-kinase domain (JH2, amino-acids 536-812 with 3 surface mutations W659A, W777A, F794H); His (C); purchased BPS Bioscience 79498; host or cells: baculovirus expression system
T1 sequence (O60674 536-812 V617F/W659A/W777A/F794H): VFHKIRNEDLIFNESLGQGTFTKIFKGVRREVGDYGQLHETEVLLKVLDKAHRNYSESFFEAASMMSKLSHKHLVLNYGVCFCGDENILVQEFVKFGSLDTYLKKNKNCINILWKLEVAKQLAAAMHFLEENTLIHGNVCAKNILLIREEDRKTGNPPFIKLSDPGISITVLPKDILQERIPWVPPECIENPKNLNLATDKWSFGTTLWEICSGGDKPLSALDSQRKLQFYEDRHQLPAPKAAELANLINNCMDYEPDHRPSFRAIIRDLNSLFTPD
The experiment in a line: JAK2 LanthaScreen JH2-V617F Binding Assay. The following applies: JAK2 JH2-V617F 0.26 nM, 50 nM tracer, 1 hour at 25° C.; read-out: JH2 BIND V617F. The protocol:
Example C. JAK2 LanthaScreen JH2-V617F Binding Assay
JAK2 JH2-V617F binding assay utilizes pseudo-kinase domain (JH2, amino-acids 536-812 with 3 surface mutations W659A, W777A, F794H) of human V617F mutant JAK2 expressed as C-terminal His-Avi-tagged, biotinylated protein in a baculovirus expression system (BPS Bioscience, Catalog #79498). The assay was conducted in black 384-well polystyrene plates in a final reaction volume of 20 μL. JAK2 JH2-V617F (0.26 nM) was incubated with compounds (100 nL serially diluted in DMSO) in the presence of 50 nM Fluorescent JAK2-JH2 Tracer (MedChem Express Catalog #HY-102055) and 0.25 nM Streptavidin-Tb cryptate (Cisbio Part #610SATLB) in assay buffer (50 mM Tris, pH=7.5, 10 mM MgCl2, 0.01% Brij-35, 0.1% BSA, 1 mM EGTA, 5% Glycerol and 5 mM DTT). Non-specific binding was accessed in the presence of 2 mM ATP. After incubation for 1 hour at 25° C., LanthaScreen signals were read on a PHERAstar FS plate reader (BMG LABTECH). Data was analyzed with IDBS XLfit and GraphPad Prism 5.0 software using a four parameter dose response curve to determine IC50 for each compound.

Assay [2] has as its target catalytic domain (JH1, amino acids 808-1132) of human JAK2 (Homo sapiens, UniProt O60674). The experiment in a line: JAK2 HTRF Enzyme Activity Assay. Format: biochemical. Conditions: ATP 30 µM, 60 minutes at 25° C.; read-out: V617F ENZ 30 UM. On the technique in general: In TR-FRET formats the signal depends on donor and acceptor labels being close together.

Chain of catalytic domain (JH1, amino acids 808-1132) of human JAK2 (O60674 808-1132 limits assumed): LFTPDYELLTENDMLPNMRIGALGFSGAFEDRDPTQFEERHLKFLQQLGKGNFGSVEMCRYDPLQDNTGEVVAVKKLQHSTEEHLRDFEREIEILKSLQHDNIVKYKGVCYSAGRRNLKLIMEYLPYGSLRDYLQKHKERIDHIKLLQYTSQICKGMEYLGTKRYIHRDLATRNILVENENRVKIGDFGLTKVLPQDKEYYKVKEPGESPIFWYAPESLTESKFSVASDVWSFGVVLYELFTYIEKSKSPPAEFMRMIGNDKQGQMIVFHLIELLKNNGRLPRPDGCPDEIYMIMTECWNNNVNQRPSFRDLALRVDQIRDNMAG

Regarding `[2H]C([2H])([2H])c1cc(Nc2cc3c(cn2)n(C([2H])([2H])[2H])c(=O)n3[C@@H]2CC[C@@]([2H])(NC(=O)OC)C2)nc(-c2ncc(C(C)(C)O)s2)c1` [Example 150, Methyl ((1R,3R)-3-(6-((6-(5-(2-hydroxypropan-2-yl)thiazol-2-yl)-4-(methyl-d3)pyridin-2-yl)amino)-3-(methyl-d3)-2-oxo-2,3-dihydro-1H-imidazo[4,5-c]pyridin-1-yl)cyclopentyl-1-d)carbamate], the figures for the IC50 in assay [1] and in assay [2] were ≤ 10 nM and > 1000 nM, respectively.

`[2H]C([2H])([2H])n1c(=O)n([C@@H]2CC[C@](C)(NC(C)=O)C2)c2cc(Nc3cc(C(C)(C)O)cc(-c4cnc(OC(C)C)s4)n3)ncc21` [Example 151, N-((1S,3R)-3-(6-((4-(2-hydroxypropan-2-yl)-6-(2-isopropoxythiazol-5-yl)pyridin-2-yl)amino)-3-(methyl-d3)-2-oxo-2,3-dihydro-1H-imidazo[4,5-c]pyridin-1-yl)-1-methylcyclopentyl)acetamide]: the values for the IC50 in assay [1] and in assay [2] were ≤ 10 nM and > 1000 nM, respectively.

For the compound `[2H]C([2H])([2H])n1c(=O)n([C@@H]2CC[C@](C)(NC(C)=O)C2)c2cc(Nc3cc(C(C)(C)O)cc(-c4cnc(OC)s4)n3)ncc21` [Example 152, N-((1S,3R)-3-(6-((4-(2-Hydroxypropan-2-yl)-6-(2-methoxythiazol-5-yl)pyridin-2-yl)amino)-3-(methyl-d3)-2-oxo-2,3-dihydro-1H-imidazo[4,5-c]pyridin-1-yl)-1-methylcyclopentyl)acetamide], the values for the IC50 in assay [1] and in assay [2] were ≤ 10 nM and > 1000 nM, respectively.

As to `[2H]C([2H])([2H])n1c(=O)n([C@@H]2CC[C@](C)(NC(C)=O)C2)c2cc(Nc3cc(C(C)(C)O)cc(-c4cnc(OCC)s4)n3)ncc21` [Example 153, N-((1S,3R)-3-(6-((6-(2-Ethoxythiazol-5-yl)-4-(2-hydroxypropan-2-yl)pyridin-2-yl)amino)-3-(methyl-d3)-2-oxo-2,3-dihydro-1H-imidazo[4,5-c]pyridin-1-yl)-1-methylcyclopentyl)acetamide], the IC50 in assay [1] is ≤ 10 nM; in assay [2], > 1000 nM.

`[2H]C([2H])([2H])n1c(=O)n([C@H]2C[C@H](NC(=O)OC)[C@@H](O)C2)c2cc(Nc3cc(C(C)(C)O)cc(-c4ncc(C(F)(F)F)s4)n3)ncc21` [Example 155, Methyl ((1S,2S,4S)-2-hydroxy-4-(6-((4-(2-hydroxypropan-2-yl)-6-(5-(trifluoromethyl)thiazol-2-yl)pyridin-2-yl)amino)-3-(methyl-d3)-2-oxo-2,3-dihydro-1H-imidazo[4,5-c]pyridin-1-yl)cyclopentyl)carbamate]: the results for the IC50 in assay [1] and in assay [2] were ≤ 10 nM and > 1000 nM, respectively.

With `[2H]C([2H])([2H])n1c(=O)n([C@@H]2CC[C@@]([2H])(NC(=O)OC)C2)c2cc(Nc3cc(C(C)(C)O)cc(-c4ncc(C(F)(F)F)s4)n3)ncc21` [Example 158, Methyl ((1R,3R)-3-(6-((4-(2-hydroxypropan-2-yl)-6-(5-(trifluoromethyl)thiazol-2-yl)pyridin-2-yl)amino)-3-(methyl-d3)-2-oxo-2,3-dihydro-1H-imidazo[4,5-c]pyridin-1-yl)cyclopentyl-1-d)carbamate], the IC50 is ≤ 10 nM in assay [1] and > 1000 nM in assay [2].

For the compound `[2H]C([2H])([2H])n1c(=O)n([C@@H]2CC[C@]([2H])(NC(=O)OC)C2)c2cc(Nc3cc(C(C)(C)O)cc(-c4ncc(C(F)(F)F)s4)n3)ncc21` [Example 159, Methyl ((1S,3R)-3-(6-((4-(2-hydroxypropan-2-yl)-6-(5-(trifluoromethyl)thiazol-2-yl)pyridin-2-yl)amino)-3-(methyl-d3)-2-oxo-2,3-dihydro-1H-imidazo[4,5-c]pyridin-1-yl)cyclopentyl-1-d)carbamate], the results for the IC50 in assay [1] and in assay [2] were ≤ 10 nM and > 1000 nM, respectively.

For `[2H]C([2H])([2H])n1c(=O)n([C@@H]2CC[C@]([2H])(NC(=O)OC)C2)c2cc(Nc3cc(-c4cnccc4C(F)(F)F)c4nc(C)c(-c5cnn(C(F)F)c5)n4n3)ncc21` [Example 160, Methyl ((1S,3R)-3-(6-((3-(1-(difluoromethyl)-1H-pyrazol-4-yl)-2-methyl-8-(4-(trifluoromethyl)pyridin-3-yl)imidazo[1,2-b]pyridazin-6-yl)amino)-3-(methyl-d3)-2-oxo-2,3-dihydro-1H-imidazo[4,5-c]pyridin-1-yl)cyclopentyl-1-d)carbamate], the IC50 in assay [1] was ≤ 10 nM; in assay [2], > 1000 nM.

Turning to `[2H]C([2H])([2H])n1c(=O)n([C@@H]2CC[C@@H](NC(=O)OC)C2)c2cc(Nc3cc(C4CCOCC4)cc(-c4ncc(C(C)(C)O)s4)n3)ncc21` [Example 161, Methyl ((1R,3R)-3-(6-((6-(5-(2-hydroxypropan-2-yl)thiazol-2-yl)-4-(tetrahydro-2H-pyran-4-yl)pyridin-2-yl)amino)-3-(methyl-d3)-2-oxo-2,3-dihydro-1H-imidazo[4,5-c]pyridin-1-yl)cyclopentyl)carbamate], the values for the IC50 in assay [1] and in assay [2] were ≤ 10 nM and > 1000 nM, respectively.

Regarding `[2H]C([2H])([2H])n1c(=O)n([C@@H]2CC[C@@]([2H])(NC(=O)OC)C2)c2cc(Nc3cc(C4CCOCC4)cc(-c4ncc(C(C)(C)O)s4)n3)ncc21` [Example 162, Methyl ((1R,3R)-3-(6-((6-(5-(2-hydroxypropan-2-yl)thiazol-2-yl)-4-(tetrahydro-2H-pyran-4-yl)pyridin-2-yl)amino)-3-(methyl-d3)-2-oxo-2,3-dihydro-1H-imidazo[4,5-c]pyridin-1-yl)cyclopentyl-1-d)carbamate], the IC50 in assay [1] is ≤ 10 nM; in assay [2], > 1000 nM.

With `[2H]C([2H])([2H])n1c(=O)n([C@@H]2CC[C@]([2H])(NC(=O)OC)C2)c2cc(Nc3cc(C4CCOCC4)cc(-c4ncc(C(C)(C)O)s4)n3)ncc21` [Example 163, Methyl ((1S,3R)-3-(6-((6-(5-(2-hydroxypropan-2-yl)thiazol-2-yl)-4-(tetrahydro-2H-pyran-4-yl)pyridin-2-yl)amino)-3-(methyl-d3)-2-oxo-2,3-dihydro-1H-imidazo[4,5-c]pyridin-1-yl)cyclopentyl-1-d)carbamate], the values for the IC50 in assay [1] and in assay [2] were ≤ 10 nM and 500 to 1000 nM, respectively.

For `[2H]C([2H])([2H])n1c(=O)n([C@@H]2CC[C@@]([2H])(NC(=O)OC)C2)c2cc(Nc3cc(-c4cnccc4C(F)(F)F)cc(-c4ncc(C(C)(C)O)s4)n3)ncc21` [Example 164, Methyl ((1R,3R)-3-(6-((6′-(5-(2-hydroxypropan-2-yl)thiazol-2-yl)-4-(trifluoromethyl)-[3,4′-bipyridin]-2′-yl)amino)-3-(methyl-d3)-2-oxo-2,3-dihydro-1H-imidazo[4,5-c]pyridin-1-yl)cyclopentyl-1-d)carbamate], the figures for the IC50 in assay [1] and in assay [2] were ≤ 10 nM and > 1000 nM, respectively.

`[2H]C([2H])([2H])n1c(=O)n([C@@H]2CC[C@]([2H])(NC(=O)OC)C2)c2cc(Nc3cc(-c4cnccc4C(F)(F)F)cc(-c4ncc(C(C)(C)O)s4)n3)ncc21` [Example 165, Methyl ((1S,3R)-3-(6-((6′-(5-(2-hydroxypropan-2-yl)thiazol-2-yl)-4-(trifluoromethyl)-[3,4′-bipyridin]-2′-yl)amino)-3-(methyl-d3)-2-oxo-2,3-dihydro-1H-imidazo[4,5-c]pyridin-1-yl)cyclopentyl-1-d)carbamate]: the IC50 in assay [1] was ≤ 10 nM; in assay [2], > 1000 nM.

Regarding `[2H]C([2H])([2H])n1c(=O)n([C@@H]2CC[C@@]([2H])(NC(=O)OC)C2)c2cc(Nc3cc(C4CCN(C)CC4)cc(-c4ncc(C(C)(C)O)s4)n3)ncc21` [Example 166, Methyl ((1R,3R)-3-(6-((6-(5-(2-hydroxypropan-2-yl)thiazol-2-yl)-4-(1-methylpiperidin-4-yl)pyridin-2-yl)amino)-3-(methyl-d3)-2-oxo-2,3-dihydro-1H-imidazo[4,5-c]pyridin-1-yl)cyclopentyl-1-d)carbamate], the IC50 in assay [1] is ≤ 10 nM; in assay [2], > 1000 nM.

As for `[2H]C([2H])([2H])n1c(=O)n([C@@H]2CC[C@@]([2H])(NC(=O)OC)C2)c2cc(Nc3cc(-c4cccnc4C(F)(F)F)cc(-c4ncc(C(C)(C)O)s4)n3)ncc21` [Example 167, Methyl ((1R,3R)-3-(6-((6′-(5-(2-hydroxypropan-2-yl)thiazol-2-yl)-2-(trifluoromethyl)-[3,4′-bipyridin]-2′-yl)amino)-3-(methyl-d3)-2-oxo-2,3-dihydro-1H-imidazo[4,5-c]pyridin-1-yl)cyclopentyl-1-d)carbamate], the results for the IC50 in assay [1] and in assay [2] were ≤ 10 nM and > 1000 nM, respectively.
